Measurements: patent publication US11583516B2, “Dash inhibitors, and uses related thereto” (Trustees of Tufts College, priority 2016, dated 2023)
Like-named read-outs stand apart in the source and are kept apart here.

Experiments:
MV4;11 Luc-Neo = test: Pyroptosis IC50 in cells; type: cell-based
CT26 tumor = type: in vivo; settings: CT26 model
RAW 264.7 WT cells = test: Pyroptosis IC50 in cells; type: cell-based
cancer = settings: in the clinic; cited from earlier work
MV4;11 cells = test: Cell line drug sensitivity (CellTiter-Glo); type: cell-based; settings: MV4;11, AML M5; 48 h; read-out: IC50
AML cell lines = test: AML cell line sensitivity, summary over the panel; type: cell-based; settings: most of these AML cell lines
Method: (§1) SET-2, RS4;11, and SKM-1 cells were purchased from DSMZ. HL-60, MV4;11, OCI-AML2, NB4, MOLM-13, NOMO-1, DAOY, HEL, IMR-5, K562, Kasumi-1, ONS-76, RDES-1, and TC-71 cells were a gift from Alex Kentsis and verified using STR genotyping (Genetica). […] MCF-7, Jurkat, THP-1, U937, HL-60, MV4;11, OCI-AML2, NB4, MOLM-13, NOMO-1, HEL, K562, SET-2, RS4;11, SKM-1 and Kasumi-1 were grown in RPMI-1640 medium with 10% FBS. All cells were grown at 37° C. in a 5% CO2 incubator. Cell lines were tested for mycoplasma using the MycoAlert Mycoplasma Detection Kit (Lonza).
(§2) Cells were plated (2000 cells/well) in white, 384-well clear bottom plates using an EL406 Microplate Washer/Dispenser (BioTek) in 25 μL final volume of media. Compounds were added using a pintool (CyBio) and cells were incubated for 48 h at 37° C. Assay plates were then removed from the incubator and allowed to equilibrate to room temperature on the bench top before addition of 10 μL of CellTiter-Glo reagent (Promega) according to the manufacturer's instructions. Assay plates were shaken on an orbital shaker for 2 minutes and incubated at room temperature on the bench top for 10 minutes. Luminescence was then read using a Cytation 5 Cell Imaging Multi-Mode Reader (BioTek). (FIG. 6)

G-CSF = test: Serum cytokine induction in mice (G-CSF screen); type: in vivo, BALB/c mice
From the text: No. MKC00B) • IL-18 (R&D Systems, Cat. […] Systems, Cat. No. […])

THP-1 sgGFP = test: Pyroptosis IC50 in cells; type: cell-based
RS4;11 cells = test: Cell line drug sensitivity (CellTiter-Glo); type: cell-based; settings: RS4;11, AML/B-ALL; 48 h; read-out: IC50
CT26 cells = test: CT26 cell viability; type: cell-based
MB49 tumor = test: MB49 efficacy studies; type: in vivo, C57BL/6 mice
NB4 cells = test: Cell line drug sensitivity (CellTiter-Glo); type: cell-based; settings: NB4, AML/APL M3; 48 h; read-out: IC50
[1] = Maximum tolerated dose study (single dose); type: in vivo, Sprague Dawley rats; settings: with Pyrrophenone or AACOCF3, based on serum drug levels
From the text: Bars show the MTD single dose in SD rats prior to seeing animal death. […] See also FIG. 33 for a similar comparison using cPLA2 inhibitors instead of COX inhibitors.
Bars show the MTD single dose in SD rats prior to seeing animal death. Based on serum drug levels, the addition of a cPLA2 inhibitors to the I-DASH inhibitor increases that MTD dose by at least 20-fold.
Bars show the MTD single dose in SD rats prior to seeing animal death.

DAOY cells = test: Cell line drug sensitivity (CellTiter-Glo); type: cell-based; settings: DAOY, Medulloblastoma; 48 h; read-out: IC50
Method: as §1, §2

ONS-76 cells = test: Cell line drug sensitivity (CellTiter-Glo); type: cell-based; settings: ONS-76, Medulloblastoma; 48 h; read-out: IC50
Method: as §1, §2

Kasumi-1 cells = test: Cell line drug sensitivity (CellTiter-Glo); type: cell-based; settings: Kasumi-1, AML M2; 48 h; read-out: IC50
Method: as §1, §2

RDES-1 cells = test: Cell line drug sensitivity (CellTiter-Glo); type: cell-based; settings: RDES-1, Ewing's sarcoma; 48 h; read-out: IC50
Method: as §1, §2

OCI-AML3 cells = test: Cell line drug sensitivity (CellTiter-Glo); type: cell-based; settings: OCI-AML3, AML M4; 48 h; read-out: IC50
Method: as §1, §2

KG-1 cells = test: Cell line drug sensitivity (CellTiter-Glo); type: cell-based; settings: KG-1, AML M0; 48 h; read-out: IC50
Method: as §1, §2

SET-2 cells = test: Cell line drug sensitivity (CellTiter-Glo); type: cell-based; settings: SET-2, AML/MPN; 48 h; read-out: IC50
Method: as §1, §2

HT-1080 cells = test: Cell line drug sensitivity (CellTiter-Glo); type: cell-based; settings: HT-1080, Fibrosarcoma; 48 h; read-out: IC50
Method: as §1, §2

TC-71 cells = test: Cell line drug sensitivity (CellTiter-Glo); type: cell-based; settings: TC-71, Ewing's sarcoma; 48 h; read-out: IC50
Method: as §1, §2

U937 cells = test: Cell line drug sensitivity (CellTiter-Glo); type: cell-based; settings: U937, AML/histiocytic lymphoma M5; 48 h; read-out: IC50
Method: as §1, §2

HL-60 cells = test: Cell line drug sensitivity (CellTiter-Glo); type: cell-based; settings: HL-60, AML M2; 48 h; read-out: IC50
Method: as §1, §2

K562 cells = test: Cell line drug sensitivity (CellTiter-Glo); type: cell-based; settings: K562, CML/Erythroleukemia; 48 h; read-out: IC50
Method: as §1, §2

MCF7 cells = test: Cell line drug sensitivity (CellTiter-Glo); type: cell-based; settings: MCF7, Breast; 48 h; read-out: IC50
Method: as §1, §2

SKM-1 cells = test: Cell line drug sensitivity (CellTiter-Glo); type: cell-based; settings: SKM-1, AML M5; 48 h; read-out: IC50
Method: as §1, §2

IMR-5 cells = test: Cell line drug sensitivity (CellTiter-Glo); type: cell-based; settings: IMR-5, Neuroblastoma; 48 h; read-out: IC50
Method: as §1, §2

THP-1 cells = test: Cell line drug sensitivity (CellTiter-Glo); type: cell-based; settings: THP-1, AML M5; 48 h; read-out: IC50
Method: as §1, §2

MOLM-13 cells = test: Cell line drug sensitivity (CellTiter-Glo); type: cell-based; settings: MOLM-13, AML M5; 48 h; read-out: IC50
Method: as §1, §2

Jurkat cells = test: Cell line drug sensitivity (CellTiter-Glo); type: cell-based; settings: T-ALL, 48 h, read-out: IC50
Method: as §1, §2

HEL cells = test: Cell line drug sensitivity (CellTiter-Glo); type: cell-based; settings: AML/Erythroleukemis M6, 48 h, read-out: IC50
Method: as §1, §2

NOMO-1 cells = test: Cell line drug sensitivity (CellTiter-Glo); type: cell-based; settings: NOMO-1, AML M5; 48 h; read-out: IC50
Method: as §1, §2

With CC(C)[C@H](N)C(=O)N1CCC[C@H]1B(O)O [ARI-2054, Valine-boroProline] the IC50 (MV4;11 Luc-Neo) was 0.06 µM, the “Inhibition of tumor growth (average)” value (CT26 tumor; 10 micrograms) was “about 30%” and the “Inhibition of tumor growth (average)” value (CT26 tumor; 20 micrograms) was roughly 80%. The IC50 (RAW 264.7 WT cells) was 0.098 µM, the Clinical response (cancer) was “some partial and complete responses” and the Clinical toxicity (cancer) was “discontinued due to dose-limiting toxicity”. For the same compound, the IC50 (MV4;11 cells) was 0.078 µM, the IC50 (AML cell lines) was greater than 0.1 µM and the “Average [G-CSF] at 6 hrs” value (G-CSF; 20 μg/animal PO) was 55000 pg/mL. For the same compound, the “Average [G-CSF] at 6 hrs” value (G-CSF; 20 μg/animal SC) was 97000 pg/mL, the IC50 (THP-1 sgGFP) was 0.168 µM and the IC50 (RS4;11 cells) was 0.147 µM. For the same compound, the EC50 (CT26 cells) was greater than 1000 µM, the “Tumor regression in combination with celecoxib” value (MB49 tumor; 20 microgram dose of Val-boroPro plus celecoxib) was “facilitated the achievement of tumor regression” and the “Antitumor activity in combination with celecoxib” value (MB49 tumor; Val-boroPro plus celecoxib) was “increased the antitumor activity of Val-boroPro markedly (statistically significantly) and in a dose-dependent manner”. The IC50 (NB4 cells) was 0.1 µM, the “Increase of MTD dose by addition of a cPLA2 inhibitor” value [1] was “at least 20 fold” and the IC50 (DAOY cells) was greater than 60 µM. The IC50 (ONS-76 cells) was greater than 60 µM, the IC50 (Kasumi-1 cells) was greater than 60 µM and the IC50 (RDES-1 cells) was greater than 60 µM. The IC50 (OCI-AML3 cells) was 0.08 µM, the IC50 (KG-1 cells) was 0.02 µM and the IC50 (SET-2 cells) was 0.006 µM. It also gave an IC50 (HT-1080 cells) greater than 60 µM, an IC50 (TC-71 cells) greater than 60 µM and an IC50 (U937 cells) greater than 60 µM. It also gave an IC50 (HL-60 cells) of 0.115 µM, an IC50 (K562 cells) greater than 60 µM and an IC50 (MCF7 cells) greater than 60 µM. It also gave an IC50 (SKM-1 cells) of 0.044 µM, an IC50 (IMR-5 cells) greater than 60 µM and an IC50 (THP-1 cells) of 0.206 µM. For the same compound, the IC50 (MOLM-13 cells) was 0.12 µM, the IC50 (Jurkat cells) was greater than 60 µM and the IC50 (HEL cells) was greater than 60 µM. It also gave an IC50 (NOMO-1 cells) of 0.16 µM.
